Experiments:
[1] = system: CD8-MerTK in Ba/F3-CDM cells; experiment: In cell MER kinase assay, Ba/F3-CDM cell proliferation without IL-3 (Celltiter-Glo); type: cell-based, murine; settings: 48 hours compound treatment, read-out: Cell growth inhibition (GI50)
Protocol: To establish an in cell kinase assay for MerTK kinase, the IL-3 dependent Ba/F3 cells of murine lymphoid origin was transfected with CD8-MerTK. […] For a routine cellular assay, Ba/F3-CDM cells were seeded at 2,000 cells per well in 384-well cell culture plate containing DMEM/10% FBS culture media and incubated for 24 hours before addition of compounds pre-diluted in culture media. Following compound treatment, cells were further incubated for 48 hours and the proliferation was measured. To discriminate a Ba/F3 growth inhibition by a specific inhibition of MerTK kinase following compound treatment vs growth inhibition due to a non-specific unintended cytotoxicity of compounds, we routinely carried out control sets of Ba/F3 cells in parallel that grown in IL3-supplemented growth media. In the presence of IL-3, the proliferation of Ba/F3 is no longer dependent on the MerTK activity. Cell growth and proliferation was measured with Celltiter-Glo™ system (Promega, USA) according to the manufacturer's instruction. The half-maximal growth inhibitory concentration (GI50) value was calculated with Prism6.0 software (GraphPad, USA).

[2] = target: human c-MER catalytic domain (Homo sapiens (Human), UniProt Q12866); experiment: LanthaScreen TR-FRET kinase assay, c-MER; settings: read-out: Mer TK inhibition (IC50); Biochemical IC50, TR-FRET, 10 uM ATP
Sequence of human c-MER catalytic domain (Q12866 587-858): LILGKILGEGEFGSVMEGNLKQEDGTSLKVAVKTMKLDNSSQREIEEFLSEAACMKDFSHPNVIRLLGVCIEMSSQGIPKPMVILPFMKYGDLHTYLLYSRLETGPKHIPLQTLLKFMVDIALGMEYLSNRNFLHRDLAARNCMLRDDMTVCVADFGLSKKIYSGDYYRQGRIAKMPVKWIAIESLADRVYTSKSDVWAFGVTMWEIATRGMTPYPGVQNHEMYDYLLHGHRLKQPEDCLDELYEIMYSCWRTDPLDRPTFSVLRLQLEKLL

Row | SMILES | GI50 [1] [nM] | IC50 [2] [nM]
1 | Cn1cc(-c2cnc(N)c(C(=O)N[C@H]3CCC[C@@H]3OCc3ccc(-c4ccc(CN5CCNCC5)cc4)cc3)c2)cn1 [Example 177, 2-amino-5-(1-methyl-1H-pyrazol-4-yl)-N-((1S,2S)-2-((4′-(piperazin-1-ylmethyl)-[1,1′-biphenyl]-4-yl)methoxy)cyclopentyl)nicotinamide] | 100 to 500 | < 10
2 | Cn1cc(-c2cnc(N)c(C(=O)N[C@H]3CCC[C@@H]3OCc3ccc(-c4ccc(CN5CCC(N6CCCC6)CC5)cc4)cc3)c2)cn1 [Example 179, 2-amino-5-(1-methyl-1H-pyrazol-4-yl)-N-((1S,2S)-2-((4′-((4-(pyrrolidin-1-yl)piperidin-1-yl)methyl)-[1,1′-biphenyl]-4-yl)methoxy)cyclopentyl)-nicotinamide] | 100 to 500 | < 10
3 | Cn1cc(-c2cnc(N)c(C(=O)N[C@H]3CCC[C@@H]3OCc3ccc(-c4ccc(CN5CCC(O)CC5)cc4)cc3)c2)cn1 [Example 180, 2-amino-N-((1S,2S)-2-((4′-((4-hydroxypiperidin-1-yl)methyl)-[1,1′-biphenyl]-4-yl)methoxy)cyclopentyl)-5-(1-methyl-1H-pyrazol-4-yl)nicotinamide] | > 1000 | < 10
4 | Cn1cc(-c2cnc(N)c(C(=O)N[C@H]3CCC[C@@H]3OCc3ccc(-c4ccc(CN5CCN(CCO)CC5)cc4)cc3)c2)cn1 [Example 181, 2-amino-N-((1S,2S)-2-((4′-((4-(2-hydroxyethyl)piperazin-1-yl)-methyl)-[1,1′-biphenyl]-4-yl)methoxy)cyclopentyl)-5-(1-methyl-1H-pyrazol-4-yl)-nicotinamide] | < 100 | < 10
5 | Cn1cc(-c2cnc(N)c(C(=O)N[C@H]3CCC[C@@H]3OCc3ccc(-c4ccc(CN5CCN(CC(C)(C)O)CC5)cc4)cc3)c2)cn1 [Example 182, 2-amino-N-((1S,2S)-2-((4′-((4-(2-hydroxy-2-methylpropyl)-piperazin-1-yl)methyl)-[1,1′-biphenyl]-4-yl)methoxy)cyclopentyl)-5-(1-methyl-1H-pyrazol-4-yl)nicotinamide] | < 100 | < 10
6 | CCN1CCN(Cc2ccc(-c3ccc(CO[C@H]4CCC[C@@H]4NC(=O)c4cc(-c5cnn(C)c5)cnc4N)cc3)cc2)CC1 [Example 183, 2-amino-N-((1S,2S)-2-((4′-((4-ethylpiperazin-1-yl)methyl)-[1,1′-biphenyl]-4-yl)methoxy)cyclopentyl)-5-(1-methyl-1H-pyrazol-4-yl)nicotinamide] | < 100 | < 10
7 | Cn1cc(-c2cnc(N)c(C(=O)N[C@H]3CCC[C@@H]3OCc3ccc(-c4ccc(CN5CCN(C6CC6)CC5)cc4)cc3)c2)cn1 [Example 184, 2-amino-N-((1S,2S)-2-((4′-((4-cyclopropylpiperazin-1-yl)methyl)-[1,1′-biphenyl]-4-yl)methoxy)cyclopentyl)-5-(1-methyl-1H-pyrazol-4-yl)nicotinamide] | < 100 | < 10
8 | C[C@@H]1CN(Cc2ccc(-c3ccc(CO[C@H]4CCC[C@@H]4NC(=O)c4cc(-c5cnn(C)c5)cnc4N)cc3)cc2)CCN1 [Example 185, 2-amino-5-(1-methyl-1H-pyrazol-4-yl)-N-((1S,2S)-2-((4′-(((R)-3-methylpiperazin-1-yl)methyl)-[1,1′-biphenyl]-4-yl)methoxy)cyclopentyl)nicotinamide] | 100 to 500 | < 10
9 | C[C@@H]1CN(Cc2ccc(-c3ccc(CO[C@H]4CCC[C@@H]4NC(=O)c4cc(-c5cnn(C)c5)cnc4N)cc3)cc2)CCN1C [Example 186, 2-amino-N-((1S,2S)-2-((4′-(((R)-3,4-dimethylpiperazin-1-yl)-methyl)-[1,1′-biphenyl]-4-yl)methoxy)cyclopentyl)-5-(1-methyl-1H-pyrazol-4-yl)-nicotinamide] | < 100 | < 10
10 | C[C@@H]1CN(C)CCN1Cc1ccc(-c2ccc(CO[C@H]3CCC[C@@H]3NC(=O)c3cc(-c4cnn(C)c4)cnc3N)cc2)cc1 [Example 187, 2-amino-N-((1S,2S)-2-((4′-(((R)-2,4-dimethylpiperazin-1-yl)-methyl)-[1,1′-biphenyl]-4-yl)methoxy)cyclopentyl)-5-(1-methyl-1H-pyrazol-4-yl)-nicotinamide] | < 100 | < 10
11 | CCC1CN(Cc2ccc(-c3ccc(CO[C@H]4CCC[C@@H]4NC(=O)c4cc(-c5cnn(C)c5)cnc4N)cc3)cc2)CCN1C (stereo partly drawn) [Example 188, 2-amino-N-((1S,2S)-2-((4′-((3-ethyl-4-methylpiperazin-1-yl)-methyl)-[1,1′-biphenyl]-4-yl)methoxy)cyclopentyl)-5-(1-methyl-1H-pyrazol-4-yl)-nicotinamide] | < 100 | < 10
12 | C[C@@H]1CN(Cc2ccc(-c3ccc(CO[C@H]4CCC[C@@H]4NC(=O)c4cc(-c5cnn(C)c5)cnc4N)cc3)cc2)C[C@H](C)N1 [Example 189, 2-amino-N-((1S,2S)-2-((4′-((cis-3,5-dimethylpiperazin-1-yl)-methyl)-[1,1′-biphenyl]-4-yl)methoxy)cyclopentyl)-5-(1-methyl-1H-pyrazol-4-yl)-nicotinamide] | 100 to 500 | < 10
13 | C[C@@H]1CN(Cc2ccc(-c3ccc(CO[C@H]4CCC[C@@H]4NC(=O)c4cc(-c5cnn(C)c5)cnc4N)cc3)cc2)C[C@H](C)N1C [Example 190, 2-amino-5-(1-methyl-1H-pyrazol-4-yl)-N-((1S,2S)-2-((4′-((cis-3,4,5-trimethylpiperazin-1-yl)methyl)-[1,1′-biphenyl]-4-yl)methoxy)cyclopentyl)-nicotinamide] | < 100 | < 10
14 | CC1CN[C@@H](C)CN1Cc1ccc(-c2ccc(CO[C@H]3CCC[C@@H]3NC(=O)c3cc(-c4cnn(C)c4)cnc3N)cc2)cc1 (stereo partly drawn) [Example 191, 2-amino-N-((1S,2S)-2-((4′-((trans-2,5-dimethylpiperazin-1-yl)methyl)-[1,1′-biphenyl]-4-yl)methoxy)cyclopentyl)-5-(1-methyl-1H-pyrazol-4-yl)nicotinamide] | 100 to 500 | < 10
15 | C[C@@H]1CN(C)[C@@H](C)CN1Cc1ccc(-c2ccc(CO[C@H]3CCC[C@@H]3NC(=O)c3cc(-c4cnn(C)c4)cnc3N)cc2)cc1 [Example 192, 2-amino-5-(1-methyl-1H-pyrazol-4-yl)-N-((1S,2S)-2-((4′-(((2R,5S)-2,4,5-trimethylpiperazin-1-yl)methyl)-[1,1′-biphenyl]-4-yl)methoxy)cyclopentyl)nicotinamide] | < 100 | < 10
16 | CN(C)C1CCN(Cc2ccc(-c3ccc(CO[C@H]4CCC[C@@H]4NC(=O)c4cc(-c5cnn(C)c5)cnc4N)cc3)cc2)C1 (stereo partly drawn) [Example 193, 2-amino-N-((1S,2S)-2-((4′-((3-(dimethylamino)pyrrolidin-1-yl)methyl)-[1,1′-biphenyl]-4-yl)methoxy)cyclopentyl)-5-(1-methyl-1H-pyrazol-4-yl)nicotinamide] | < 100 | < 10
17 | CN1CCN(Cc2ccc(-c3ccc(CO[C@H]4CCC[C@@H]4NC(=O)c4nc(-c5cnn(C)c5)cnc4N)cc3)cc2)CC1 [Example 194, 3-amino-6-(1-methyl-1H-pyrazol-4-yl)-N-((1S,2S)-2-((4′-((4-methylpiperazin-1-yl)methyl)-[1,1′-biphenyl]-4-yl)methoxy)cyclopentyl)pyrazine-2-carboxamide] | < 100 | < 10
